Values of other authors, collected in patent US20090082370A1, “Pharmaceutical Combinations of PK Inhibitors and Other Active Agents” (priority 2006, published 2009).
pIC50: −log10 of the molar value. Each block holds one molecule with its values, some of them ahead of it.

How the values were obtained:
PKG = details: read-out: IC50 against PKG
PKB = PKB (Homo sapiens, UniProt P31749); details: read-out: IC50 against PKB
OVCAR-3 tumour cells = details: at concentrations of 50 and 100 microM
PKA = details: read-out: IC50 against PKA
PKC = details: read-out: IC50 against PKC
[1] = antitumour agent
[2] = doses 10 times more than were needed for antitumour activity
[3] = system: phospho-AKT in breast cancer cells; details: both in vitro and in vivo
[4] = system: Acute Promyelocytic Leukemia (APL)
[5] = in vivo

Chain of PKB (P31749 whole entry, species assumed): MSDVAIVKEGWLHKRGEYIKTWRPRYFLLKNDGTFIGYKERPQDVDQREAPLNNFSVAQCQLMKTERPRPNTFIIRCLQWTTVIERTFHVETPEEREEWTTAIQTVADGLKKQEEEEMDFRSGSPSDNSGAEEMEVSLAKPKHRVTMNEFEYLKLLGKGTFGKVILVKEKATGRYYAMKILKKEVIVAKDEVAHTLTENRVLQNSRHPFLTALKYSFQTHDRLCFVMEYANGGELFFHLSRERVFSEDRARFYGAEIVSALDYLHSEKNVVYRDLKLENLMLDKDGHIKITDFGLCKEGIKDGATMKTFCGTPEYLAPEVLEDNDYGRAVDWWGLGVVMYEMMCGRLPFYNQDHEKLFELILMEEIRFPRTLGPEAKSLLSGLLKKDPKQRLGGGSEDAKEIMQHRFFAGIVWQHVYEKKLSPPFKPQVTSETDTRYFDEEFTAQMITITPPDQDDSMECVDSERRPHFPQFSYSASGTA

SMILES: O=S(=O)(NCCNCC=C(c1ccccc1)c1ccccc1)c1cccc2cnccc12 [NL-71-101]
pIC50 (PKG): 4.44
pIC50 (PKB): 5.43
apoptosis in OVCAR-3 tumour cells, in which PKB is amplified (OVCAR-3 tumour cells): induced apoptosis
pIC50 (PKA): 5.05
pIC50 (PKC): 3.98

SMILES: CCN[C@H]1CO[C@@H](O[C@H]2[C@H](O[C@H]3C#C/C=C\C#C[C@]4(O)CC(=O)C(NC(=O)OC)=C3/C4=C\CSSSC)O[C@H](C)[C@@H](NO[C@H]3C[C@H](O)[C@H](SC(=O)c4c(C)c(I)c(O[C@@H]5O[C@@H](C)[C@H](O)[C@@H](OC)[C@H]5O)c(OC)c4OC)[C@@H](C)O3)[C@@H]2O)C[C@@H]1OC [Calicheamicin]
potency relative to adriamycin [1]: over 1,000 times

SMILES: CCOC(=O)c1ccc2[nH]c3c(OC)c4[nH]c5ccc(C(=O)OCC)cc5c4cc3c2c1 [SR-13668]
adverse effects in mice [2]: no adverse effects
inhibition of phospho-AKT [3]: significantly inhibits

SMILES: CC1=C(/C=C/C(C)=C/C=C/C(C)=C/C(=O)O)C(C)(C)CCC1 [Tretinoin, all-trans retinoic acid]
remissions in APL patients [4]: 64-100%

half-life [5]: ~100 h
SMILES: CCCCCCCCCCCCCCCCCCOP(=O)([O-])OC1CC[N+](C)(C)CC1 [KRX-0401]
